“Also recorded” adds a separate entry of the source. Residues, ends and D or L forms follow the SMILES beside them.

One data set has as its system endothelial cell. The settings on record: physiological titers and concentrations; cited from earlier work.
In another data set the test system is endothelial cells. The settings on record: cited from earlier work.
Data set [1] deals with bovine aortic endothelial cells (BAEC). In words: Microfilament and cell surface area measurement in cultured endothelial cells (rhodamine-phalloidin fluorescence microscopy). The data set is classed as cell-based. The source says: Bovine abdominal aortas were clamped and tied in-situ and dissected free of the supporting adventitia. Aortas were transported from the abbatoir on ice. Endothelial cells were harvested by gentle ablation of the endothelium following the technique of Shepro et al. [Anat. Rec. 178:523 (1974)]; digested with 0.1% collagenase; and then pelleted and seeded onto 100 mm diameter tissue culture dishes using conventional techniques. The cell medium consisted of DULBECCO'S MODIFIED EAGLES'S MEDIUM medium (hereinafter "DME") at pH 7.4 supplemented with 10% fetal calf serum (hereinafter "FCS"), 0.1% of penicillin, 0.7% streptomycin, 0.1% amphotericin, and 0.1% glutamine. The cell media was replaced every 3 days. The cells were incubated at 37° C. in a 10% carbon dioxide, 90% ambient atmosphere (100% humidified).
This amount of confluency permits excellent visualization of cell spreading and stressed fibers. Individual confluent layers of cells were then treated with 1 uM Phallin A for 30 minutes duration; then fixed in 3.7% phosphate-buffered formaldehyde (pH 7.4) for 15 minutes. The cells on each coverslip were then permeabilized in extraction buffer (composed of 0.5M KCl, 1% triton X-100, 10 mM MgCl2, and 1 mg/ml tosyl-arginine methyl ester (hereinafter "TAME"); 17 ug/ml toluene-sulfonyl fluoride (hereinafter "TSF"); and 0.25 mg/ml DNAse 1 in PBS for a period of 10 minutes. Subsequently, this extraction buffer was removed and the cells washed three times in sequence with PBS. The cells were then stained with Rhodamine-phalloidin (an F-active specific fluorescent probe, Molecular Probes, Inc., Junction City, Oreg.) at 1 unit/200 ul per coverslip for 39 minutes duration. Subsequently, the coverslips were washed five times consecutively in PBS; mounted in a 1:1 ratio mixture of PBS/glycerol; and sealed. The cultured cells on each coverslip were illuminated for fluorescence microscopy. […] For comparative purposes, 1.0 uM of phalloidin (also known as Phallin B) or a mixture of Phallin A and Phhallin B, and PBS alone as the control was similarly evaluated. […] Clearly, the use of Phallin A at concentrations of 10^-6 to 10^-7 M is non-toxic to the cultured endothelial cells.

Data set [2] has the same test system. As to the kind of experiment: Permeability assay: TBA (trypan blue-albumin) uptake by BAEC-covered microcarrier beads. It is filed as cell-based. The settings on record: 1 uM, 30 minutes, versus untreated controls and mixture of phalloidin and Phallin A, FIG. 2. On the procedure:
Bovine aortic endothelial cells (BAEC) were prepared, cultured, and harvested as described within Experiment 1. Subsequently, BAEC were subcultured a maximum of three times before seeding onto CYTODEX 3 microcarrier beads (Pharmacia, Inc. ) . Microcarrier beads were suspended in cell media at a concentration of 40,000 microcarriers per milliliter. Beads were suspended by stirring, using a magnetic stirrer. BAEC were seeded onto the beads at the minimum density of 15 cells per bead and allowed to reach confluency. Subsequently, BAEC covered beads were allowed to incubate for 6 days post-confluency to obtain near maximum barrier function of the cell monolayers on the beads. After this incubation period, the BAEC covered beads were ready for use within permeability experiments. […]
BAEC barrier function was measured by TBA uptake per bead; therefore, it is necessary to standardize the number of beads per milliliter. […] Standard curves for absorbance as a function of bead concentration provides a linear relationship as a basis for comparison and extrapolation. […]
BAEC barrier function was then assessed in the following manner: 3.0 ml of BAEC-covered microcarrier beads at a density of 40,000 beads per milliliter were aliquotted into a 4.5 ml test vial in duplicate. […]
This assay procedure uses colorimetry to measure TBA dye absorbance by the beads. […]

For data set [3] the following is noted: cited from earlier work.
Data set [4] relates to endothelial actin cytoskeleton. The settings on record: cited from earlier work.

Take `NCCc1c[nH]cn1` [histamine]: the endothelial cell movement result with endothelial cell is listed as “inhibit endothelial cell movement”. Also, the “stress fibers within endothelial cells” value with endothelial cells was “produces stress fiber disassembly”.

`NCCc1c[nH]c2ccc(O)cc12` [serotonin]: in the data set on endothelial cell, the endothelial cell movement result is “inhibit endothelial cell movement”. Further, the “stress fibers within endothelial cells” value in the data set on endothelial cells is recorded as “stimulate the assembly of stress fibers”.

Consider `CC(C)[C@@H]1NC(=O)[C@H](Cc2ccccc2)NC(=O)[C@H](Cc2ccccc2)NC(=O)[C@@H]2CCCN2C(=O)[C@@H]2CCCN2C(=O)[C@H](Cc2ccccc2)NC(=O)[C@H](Cc2ccccc2)NC(=O)[C@H](C)NC(=O)[C@@H]2CCCN2C(=O)[C@@H]2CCCN2C1=O` [Phallin A, antamanide] (cyclo(AFFPPFFVPP)), for which, in data set [1] (BAEC at 50% confluency, 1 uM, 30 minutes), the “cell surface area and cell perimeter” value was “increased surface area and cell perimeter”. For the same compound, in data set [1] (BAEC, 1.0 uM, FIG. 1), the cell proliferation result is listed as “do not alter in proliferation” and the “ratio of cell perimeter to cell area (roundness)” value is listed as “diminishes”. Besides, the “cell shape (flattening and border extension)” value in data set [1] (BAEC, 1.0 uM, FIG. 1, comparable to other agents and controls) was “substantial flattening and border extension”. Also, the “toxicity to cultured endothelial cells” value in data set [1] (concentrations of 10^-6 to 10^-7 M) is reported as “non-toxic”. Moreover, the “endothelial cell barrier function / resistance to permeability (TBA uptake)” value in data set [2] was “markedly increases cell barrier function”. Moreover, in data set [3] (administered in therapeutic doses), the “protection of the liver” value is reported as “protecting the liver completely”. Further, the “annulling toxic effects of fatal doses of phalloidin” value in data set [3] (in vivo) is listed as “capable of annulling the toxic effects of fetal doses of phalloidin; also recorded: capable at very low dosage of counteracting the effects of an absolutely fatal dose of phalloidin”.

Consider `NC[C@H](O)c1ccc(O)c(O)c1` [norepinephrine], for which, in the data set with endothelial cell, the endothelial cell movement result was “inhibit endothelial cell movement”. Further, in the data set with endothelial cells, the “stress fibers within endothelial cells” value is reported as “stimulate the assembly of stress fibers”.

On to `C=C1[C@@H](C)[C@H]2[C@H](Cc3ccccc3)NC(=O)[C@]23OC(=O)/C=C/[C@H](O)CCC[C@@H](C)C/C=C/[C@H]3[C@@H]1O` [cytochalasin B], for which the “permeability for plasma proteins after disruption of endothelial actin cytoskeleton” value in data set [4] was “increase in permeability for plasma proteins”.
